Data reported in patent publication US20230103142A1, “SMALL MOLECULE REGULATORS OF NOTCH1 AND USES THEREOF” (THE PENN STATE RESEARCH FOUNDATION, priority 2020, published 2023).
Like-named read-outs stand apart in the source and are kept apart here.

Experiments:
[1] = test system: Notch1/HCT116 clone C4; assay: colony forming assay
Procedure: (§6) Six biological replicates used for MTT assays and it was repeated twice for each experiment. […] The anchorage-independent growth assay was performed and repeated in triplicate.

[2] = test system: Notch1/HCT116 clone C5; assay: colony forming assay
Procedure: as §6

[3] = test system: Notch1 silenced HCT116 cells; details: vs scrambled transfected HCT116, 24 h
Procedure: (§1) Cell culture and supplies: HCT116, SW-620, TCCSUP, UMUC3, HT1376, 5637, T24 and RT4 cells were purchased from ATCC (American Type Culture Collection; Manassas, Va., USA). HCT116, T24, RT4 were maintained in McCoy's medium, TCCSUP, UMUC3, HT1376 in EMEM, SW620 in DMEM and 5637 in RPMI medium, respectively, and supplemented with 10% FBS and penicillin (100 units/mL) and streptomycin (100 units/mL; Millipore Sigma, St Louis, […]., USA) in the presence of 5% CO2 at 37° C. pCMV6-NOTCH1, vector pCMV6-Entry (NOTCH′ (NM_017617) Human ORF Clone; Origene) and NOTCH1 Human siRNA Oligo Duplex were obtained from Origene Technologies Inc. (Rockville, Md., USA). Lipofectamine 2000 reagent was used following the manufacturer's (Cat #11668019; ThermoFisher Scientific) instruction, transfection with overexpression vectors was performed with 500 ng plasmid concentration, while the siRNA was used in 25 nM concentration. Cells were allowed to be transfected for 48 hrs and later harvested or treated for further analysis. Neomycin ([…]) selection media was used to cultivate Notch1-overexpressing HCT116 clones (C1, C2, C3, C4, C5).

[4] = test system: Notch1/HCT116 clone C4; details: read-out: IC50 cell growth; C4 transfectants, 24 h
Procedure: as §1

[5] = test system: Notch1/HCT116 clone C5; details: read-out: IC50 cell growth; C5 transfectants, 24 h
Procedure: as §1

[6] = test system: pCMV/HCT116 cells; assay: colony forming assay
Procedure: as §6

[7] = test system: ALDH+ (BCSC) cells
Text: (§2) Studies have shown that Notch1 signaling is mainstay of breast cancer stem cell (BCSC) growth.

[8] = test system: ALDH− (BC) cells
Text: as §2

[9] = test system: Notch2 in HCT116 cells; assay: immunoblot with Notch2 antibody; details: HCT116, IC50 concentration, 12 h and 24 h
Text: Data are presented as the mean±standard deviation (SEM/SD) of three independent experiments. The Student's t-test was used to calculate the statistical significance between the vehicle and treatment at each concentration. *p<0.05 and **p<0.01.

[10] = test system: ALDH+ xenotransplanted tumors; assay: ALDH+ xenotransplant tumor burden; details: ALDH+ xenotransplanted mice
[11] = test system: ubiquitin in ALDH+ cells; assay: ubiquitin expression; type: cell-based
Text: Commercially available positive and negative controls were used for these experiments.

[12] = test system: NICD and HES1 in HCT116 cells; details: HCT116, IC50 concentration
Procedure: (§3) Protein extraction and western blotting: Mammalian Protein Extraction Reagent (Thermo Scientific, Rockford, Ill., USA) was used to extract total protein from pCMV/HCT116, C4, and C5 cells as well as bladder cancer cells were prepared with the according to the manufacturer's instructions. Western blotting was performed using specific antibodies against Notch1 (Cat: 3447S), Bcl-2 (Cat: 2872S), E-cadherin (Cat: 3195S), N-cadherin (Cat: 13116S), Snail (Cat: 3879S), β-catenin (Cat: 8480S), NF-κB (p65), Bax (Cat: 5023S), cleaved PARP (Cat: 9541L) (Cell Signaling Technology; Danvers, Mass., USA), and β-actin (Santa Cruz Biotechnologies, Dallas, Tex., USA), HES1 (Genescript; Lot QC1851, Piscataway, N.J., USA). Actin presented in the images represent the loading control for one or more markers from same cell lysates. Chemiluminescence was used to detect the positive bands on the membrane.

[13] = test system: NICD and HES1 in SW620 cells; details: SW620, IC50 concentration
Procedure: as §3

[14] = test system: pCMV/HCT116 cells; details: pCMV/HCT116, IC50 dose, 24 h
Procedure: (§4) Cell invasion and migration assays: The invasive capability of pCMV/HCT116 and Notch1/HCT116 was evaluated in Boyden chambers, as described in earlier studies. HCT 116, SW-620, pCMV/HCT116, and Notch1/HCT116 cells were analyzed for migration capability with protocols already described in an earlier study. All experiments were performed in triplicate to achieve statistical relevance.

[15] = test system: HCT116 cells; details: HCT116, 24 h
Procedure: as §4

[16] = test system: SW620 cells; details: SW620, 24 h
Procedure: as §4

[17] = test system: Notch1/HCT116 clone C4; details: C4, IC50 dose, 24 h
Procedure: as §4

[18] = test system: Notch1/HCT116 clone C5; details: C5, IC50 dose, 24 h
Procedure: as §4

[19] = test system: purified NRR protein; details: vs vehicle (DMSO)
Procedure: (§5) Binding Studies. The protein-ligand binding was first studied by cellular thermal shift assay (CETSA) by following previously described protocol. […] Equal amount of cell lysate was used for ELISA with NRR antibody (Cat: NBP2-62557; Novus Biologicals). GloMelt Thermal Shift Protein Stability assay was performed as per the kit instructions (GloMelt™ Thermal Shift Protein Stability Kit; Biotium; Fermont, Calif.). […] A protein melt run profile was generated and Tm (melting temperature) was calculated using DNA melt curve software. To analyze protein melting, the Tm was considered at the lowest −dF/dT value (at the lowest point on the curve).

[20] = target: NRR of Notch1 in HCT116 cells (Homo sapiens, UniProt P46531); details: ASR490-treated HCT116 cells
Sequence of NRR of Notch1 in HCT116 cells (P46531 19-2555): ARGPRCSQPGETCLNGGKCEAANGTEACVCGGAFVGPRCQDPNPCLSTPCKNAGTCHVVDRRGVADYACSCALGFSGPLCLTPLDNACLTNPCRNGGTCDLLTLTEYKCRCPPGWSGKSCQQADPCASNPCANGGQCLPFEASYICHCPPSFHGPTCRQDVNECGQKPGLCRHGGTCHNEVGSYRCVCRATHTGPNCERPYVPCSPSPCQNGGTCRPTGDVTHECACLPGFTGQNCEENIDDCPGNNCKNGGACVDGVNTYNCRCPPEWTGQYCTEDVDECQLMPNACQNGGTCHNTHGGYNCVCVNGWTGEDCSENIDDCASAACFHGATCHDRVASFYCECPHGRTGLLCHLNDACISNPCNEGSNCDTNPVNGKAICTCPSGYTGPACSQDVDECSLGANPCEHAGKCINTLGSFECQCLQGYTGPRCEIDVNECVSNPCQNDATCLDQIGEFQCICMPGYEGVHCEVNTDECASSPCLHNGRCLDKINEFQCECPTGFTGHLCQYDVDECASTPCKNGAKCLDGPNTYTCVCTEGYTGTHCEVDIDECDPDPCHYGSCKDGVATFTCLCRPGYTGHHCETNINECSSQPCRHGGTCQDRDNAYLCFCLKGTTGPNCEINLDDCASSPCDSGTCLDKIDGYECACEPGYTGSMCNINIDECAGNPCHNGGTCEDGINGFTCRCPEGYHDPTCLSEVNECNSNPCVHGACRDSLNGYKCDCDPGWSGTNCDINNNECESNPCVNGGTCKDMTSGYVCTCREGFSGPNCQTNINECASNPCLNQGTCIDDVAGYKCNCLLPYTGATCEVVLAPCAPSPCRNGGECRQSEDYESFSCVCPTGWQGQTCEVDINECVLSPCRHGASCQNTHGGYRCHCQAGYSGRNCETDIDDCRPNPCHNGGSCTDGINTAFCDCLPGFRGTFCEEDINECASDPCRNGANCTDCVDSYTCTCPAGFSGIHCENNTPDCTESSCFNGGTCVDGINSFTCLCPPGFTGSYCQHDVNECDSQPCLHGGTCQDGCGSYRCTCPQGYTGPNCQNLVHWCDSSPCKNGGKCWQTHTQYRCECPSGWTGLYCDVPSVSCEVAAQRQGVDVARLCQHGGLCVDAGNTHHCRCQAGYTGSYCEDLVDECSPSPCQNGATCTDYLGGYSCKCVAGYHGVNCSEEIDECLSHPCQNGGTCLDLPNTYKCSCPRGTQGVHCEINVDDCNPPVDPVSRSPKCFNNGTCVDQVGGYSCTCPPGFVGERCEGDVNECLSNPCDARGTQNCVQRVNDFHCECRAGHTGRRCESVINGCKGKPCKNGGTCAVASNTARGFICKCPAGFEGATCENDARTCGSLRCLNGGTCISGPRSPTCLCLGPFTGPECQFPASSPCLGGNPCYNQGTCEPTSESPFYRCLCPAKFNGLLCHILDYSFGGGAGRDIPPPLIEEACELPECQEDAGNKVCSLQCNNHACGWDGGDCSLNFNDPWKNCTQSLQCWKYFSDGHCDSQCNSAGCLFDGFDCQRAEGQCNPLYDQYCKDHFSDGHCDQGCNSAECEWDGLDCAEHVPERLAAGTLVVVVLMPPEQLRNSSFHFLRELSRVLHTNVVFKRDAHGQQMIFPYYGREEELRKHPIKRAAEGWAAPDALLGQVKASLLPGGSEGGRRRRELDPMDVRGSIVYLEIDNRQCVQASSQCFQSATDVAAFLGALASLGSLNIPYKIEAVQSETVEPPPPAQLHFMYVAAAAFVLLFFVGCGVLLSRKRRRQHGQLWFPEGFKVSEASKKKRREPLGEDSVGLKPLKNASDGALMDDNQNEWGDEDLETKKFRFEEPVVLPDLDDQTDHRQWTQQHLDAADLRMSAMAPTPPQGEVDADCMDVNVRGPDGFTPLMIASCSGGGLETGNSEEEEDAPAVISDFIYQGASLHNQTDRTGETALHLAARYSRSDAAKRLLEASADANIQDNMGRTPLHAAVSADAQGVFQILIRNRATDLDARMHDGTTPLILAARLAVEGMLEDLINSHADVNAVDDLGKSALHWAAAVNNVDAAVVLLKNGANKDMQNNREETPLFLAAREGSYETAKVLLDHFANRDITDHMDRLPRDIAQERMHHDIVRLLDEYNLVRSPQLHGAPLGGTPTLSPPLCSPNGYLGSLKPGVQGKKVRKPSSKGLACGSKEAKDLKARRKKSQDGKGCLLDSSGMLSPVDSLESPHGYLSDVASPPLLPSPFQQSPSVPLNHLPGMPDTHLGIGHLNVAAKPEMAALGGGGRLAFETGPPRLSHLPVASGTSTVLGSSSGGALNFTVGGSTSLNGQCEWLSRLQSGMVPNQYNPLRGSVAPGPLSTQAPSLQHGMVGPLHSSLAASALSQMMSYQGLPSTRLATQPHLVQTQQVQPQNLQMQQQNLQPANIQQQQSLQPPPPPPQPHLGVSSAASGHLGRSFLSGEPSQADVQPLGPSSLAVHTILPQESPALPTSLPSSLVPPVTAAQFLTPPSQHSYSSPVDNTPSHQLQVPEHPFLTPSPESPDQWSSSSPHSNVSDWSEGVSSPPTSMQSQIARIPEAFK
Procedure: as §5

[21] = test system: MDA-MB-231 cells; assay: apoptosis assay
[22] = read-out: IC 50 cell growth, 24 h
[23] = read-out: IC 50 cell growth, 48 h

Structure (SMILES): CC1=C(CO)C(=O)O[C@@H]([C@@H](C)[C@H]2CC[C@H]3[C@@H]4C[C@H]5O[C@]56[C@@H](OC(=O)c5ccccn5)C=CC(=O)[C@]6(C)[C@H]4CC[C@]23C)C1 [ASR490, Pyridine-2-carboxylic acid {17-[1-(5-hydroxymethyl-4-methyl-6-oxo-3,6-dihydro-2H-pyran-2-yl)-ethyl]-10,13-dimethyl-1-oxo, 4,6,7,8,9,10,11,12,13,14,15,16,17-tetradecahydro-20-oxacyclopropa[5,6]cyclopenta[a]phenanthren-4-yl}ester]
- reduction of colony forming ability [1]: 38%
- reduction of colony forming ability [2]: 26.66%
- growth of Notch1 silenced cells [3]: failed to inhibit the growth
- IC50 [4]: 800 nM
- IC50 [5]: 1100 nM
- reduction of colony forming ability [6]: 22.3%
- IC50 [7, 22]: 770 nM
- IC50 [7, 23]: 443 nM
- IC50 [8, 22]: 1600 nM
- IC50 [8, 23]: 836 nM
- Notch2 expression [9]: no change
- tumor burden [10]: significantly reduced tumor burden
- ubiquitin expression [11]: time dependent increased ubiquitin expression
- expression of NICD and HES1 protein [12]: Significant downregulation
- expression of NICD and HES1 protein [13]: Significant downregulation
- decline in invasive capacity [14]: 40%
- decline in migratory potential [14]: 25.11%
- inhibition of migratory capability [15]: 25.18%
- inhibition of migratory capability [16]: 32.36%
- decline in invasive capacity [17]: 60.75%
- decline in invasive capacity [18]: 65.5%
- thermal stabilization of NRR protein [19]: increased stabilization of NRR protein
- binding to NRR by CETSA [20]: binds directly to NRR
- apoptosis ([21]; MDA MB-231, 24 h): approximately 20
- apoptosis ([21]; MDA MB-231, 48 h): ~43
